In test [1] the test system is G. lamblia strain CBG99. Kind of test: G. lamblia CBG99 luciferase reporter trophozoite growth assay. In kind it is cell-based, Giardia lamblia. To be noted: for inhibition at 10 µM: read-out: % inhibition at 10 μM; for % inhibition at 10 μM: pNP tested at 10 μM, G. lamblia growth, primary screen; for times more potent than metronidazole: relative to metronidazole EC50 of 5 μM. The source says:
For in vitro Giardia assays, we used a click beetle green (CBG99) luciferase-based reporter system that was developed for quantitative bioluminescence readouts of growth in trophozoites ([13][–][15]). The CBG99 reporter gene is under the control of the glutamate dehydrogenase promoter, which is highly expressed in the G. lamblia trophozoite stage, making it useful for monitoring growth even in mouse infection models ([15]). The compound library was obtained from the Natural Products Discovery Group (NPDG) at the University of Oklahoma ([16]). A combination of 755 purified natural products (pNPs) and 1,056 fungal extracts were screened against G. lamblia strain CBG99. Hits were defined as samples that caused ≥50% growth inhibition activity at 10 μM (pNPs) or 5 μg/mL (extracts). […] Only 2 were considered false positives (EC50 > 10 μM) (Table 2).
On the technique in general: In a reporter assay the amount or activity of a reporter protein is the signal.

The test system of test [2] is G. lamblia strain CBG99. Set-up: method as in PMID 26324270. To be noted: cited from earlier work.
[3] abbreviates: Giardia duodenalis, read-out: EC50 ± SD (μM).
The mark [4] stands for this setting: G. lamblia trophozoite growth in vitro, Table 2, read-out: EC50 ± SD.
[5] abbreviates: Giardia duodenalis, read-out: EC50 against G. lamblia trophozoite.

Where two headings read alike, the source gives them in different places. Some results are limits rather than exact numbers.

In the case of `COC(=O)C1=C[C@@H](O)[C@@H](O)[C@@H](O)[C@H]1N1C[C@H](O)[C@@H](OC(C)=O)[C@H]1Cc1ccc(OC)cc1` [NPDG 150029, Anisomycin 1-N-pericosine], the inhibition (commonly the change of the read-out against control, counted positive when it falls) at 10 µM in the test with G. lamblia strain CBG99 [1] (Giardia duodenalis) stood at 86%. In the test on G. lamblia strain CBG99 [1] (setting [3]), the EC50 (in general, the concentration giving half of the maximal effect) turned out to be 3.32 ± 0.01 µM.

`CC(=O)OC(C)(C)[C@H]1O[C@H]2CC[C@@]3(C)[C@@](O)(CC[C@H]4Cc5c([nH]c6ccccc56)[C@@]43C)C2=CC1=O` [NPDG 150113, 1′-O-acetylpaxilline]: the EC50 on G. lamblia strain CBG99 [1] (setting [4]) stood at 3.4 µM. The % inhibition – broadly, how much of the control response was suppressed – at 10 μM with G. lamblia strain CBG99 [1] is listed as 82%.

`COC1=CC(=O)c2c(O)c(C)c(CC(C)=O)c(O)c2C1=O` [NPDG 160012, Javanicin]: the inhibition at 10 µM in the test with G. lamblia strain CBG99 [1] (Giardia duodenalis) stood at 89%. The half-maximal effective concentration (EC50) in the test with G. lamblia strain CBG99 [1] (setting [3]) came to 1.26 ± 1.01 µM.

In the case of `COC12OC1(C13OC1(OC)C(=O)c1cc4cc(C)oc(=O)c4c(O)c1C3O)C(O)c1c(cc3cc(C)oc(=O)c3c1O)C2=O` (centres unmarked) [J16R, Xanthoepocin], the EC50 in the test on G. lamblia strain CBG99 [1] (Giardia duodenalis) worked out at 0.146 µM.

As to `COC1=CC(=O)C[C@@H](C)[C@]12Oc1c(Cl)c(OC)cc(OC)c1C2=O` [J16K, Griseofulvin], the EC50 in the test with G. lamblia strain CBG99 [1] (Giardia duodenalis) is 7.88 µM.

In the case of `CC(=O)O[C@H]1C[C@@]2(C)[C@@H](CC[C@H]3[C@@]4(C)C=CC(=O)[C@@H](C)[C@@H]4[C@H](OC(C)=O)C(=O)[C@@]32C)/C1=C(\CCC=C(C)C)C(=O)O` [NPDG 170028, Helvolic acid], in the test with G. lamblia strain CBG99 [1] (Giardia duodenalis), the inhibition at 10 µM was found to be 83%. Moreover, the EC50 in the test with G. lamblia strain CBG99 [1] (setting [3]) was 3.36 ± 0.14 µM.

Consider Perfraglin A [NPDG 120038], for which the EC50 on G. lamblia strain CBG99 [1] (setting [4]) was greater than 10 µM. The “% inhibition at 10 μM” value in the test on G. lamblia strain CBG99 [1] was 75%.

As to `CO[C@@H]1[C@H](OC(=O)\C=C/C=C/C=C/C=C/C(=O)O)CC[C@]2(CO2)[C@H]1[C@@]1(C)O[C@@H]1CC=C(C)C` [NPDG 150049, cis-Fumagillin], the inhibition at 10 µM in the test on G. lamblia strain CBG99 [1] (Giardia duodenalis) amounted to 85%. Moreover, the EC50 with G. lamblia strain CBG99 [1] (setting [5]) was less than 0.2 µM; in the test on G. lamblia strain CBG99 [1] (setting [3]), 0.03 ± 0.02 µM. For the same molecule, in the test with G. lamblia strain CBG99 [1], the “times more potent than metronidazole” value is on record as greater than 25 times.

Take `COC(=O)c1c(Sc2c(O)cc3oc4cc(C)cc(O)c4c(=O)c3c2C(=O)OC)c(O)cc(OC)c1C(=O)c1c(O)cc(C)cc1O` [NPDG 150051, Dioschrin]: the EC50 at G. lamblia strain CBG99 [1] (setting [4]) came out at 3.21 ± 0.61 µM. Further, the “% inhibition at 10 μM” value in the test on G. lamblia strain CBG99 [1] amounted to 82%.

For the molecule `COC1=CC(=O)CC(C)C12Oc1cc(OC)cc(OC)c1C2=O` (centres unmarked) [J16A, Dechlorogriseofulvin], in the test with G. lamblia strain CBG99 [1] (Giardia duodenalis, read-out: Giardia EC50 (μM)), the EC50 was greater than 15 µM.

Turning to `CC(C)C1NC(=O)C(CC2(O)c3ccccc3N3C(=O)C(C)(C)NC32)n2c1nc1ccccc1c2=O` (stereo not drawn) [J16E, epi-Fiscalin C], in the test on G. lamblia strain CBG99 [1] (Giardia duodenalis), the EC50 turned out to be 0.555 µM.

In the case of `N[C@H](C(=O)O)[C@@H]1CC(Cl)=NO1` [NPDG 120071, Acivicin], the inhibition at 10 µM in the test on G. lamblia strain CBG99 [1] (Giardia duodenalis) was determined as 85%. Also, the EC50 with G. lamblia strain CBG99 [1] (setting [3]) is greater than 10 µM.

As to `CC(=O)C1=C(O)[C@@H]2[C@H]3c4c[nH]c5cccc(c45)C[C@H]3C(C)(C)N2C1=O` [NPDG 170027, Cyclopiazonic acid], in the test on G. lamblia strain CBG99 [1] (Giardia duodenalis), the inhibition at 10 µM came to 81%. Further, the concentration for a half-maximal effect (EC50) in the test on G. lamblia strain CBG99 [1] (setting [3]) was found to be 1.3 ± 0.71 µM.

Turning to `CC(C)=C1NC(=O)C(CC2(O)c3ccccc3N3C(=O)C(C)(C)NC32)n2c1nc1ccccc1c2=O` (centres unmarked) [J16M, Quinadoline A], the EC50 in the test with G. lamblia strain CBG99 [1] (Giardia duodenalis) came to 3.29 µM.

Turning to `C/C=C/C=C/C=C/C(=O)O[C@@H]1C=C2COC(=O)[C@]2(O)[C@@]2(C)CCCC(C)(C)[C@H]12` [NPDG 150125, RES-1149-2], the inhibition at 10 µM in the test on G. lamblia strain CBG99 [1] (Giardia duodenalis) is 88%. For the same molecule, the EC50 in the test on G. lamblia strain CBG99 [1] (setting [5]) was less than 0.2 µM; in the test with G. lamblia strain CBG99 [1] (setting [3]), 0.18 ± 0.11 µM. Further, the “times more potent than metronidazole” value in the test on G. lamblia strain CBG99 [1] is greater than 25 times.

As for `COC1C(OC(=O)C=CC=CC=CC=CC(=O)O)CCC(O)(CCl)C1C1(C)OC1CC=C(C)C` (centres unmarked) [NPDG 150137], the inhibition at 10 µM in the test on G. lamblia strain CBG99 [1] (Giardia duodenalis) was determined as 90%. Besides, the EC50 in the test with G. lamblia strain CBG99 [1] (setting [5]) was less than 0.2 µM; with G. lamblia strain CBG99 [1] (setting [3]), 0.006 µM. The “times more potent than metronidazole” value in the test with G. lamblia strain CBG99 [1] is reported as greater than 25 times.

As for `Cc1ncc([N+](=O)[O-])n1CCO` [metronidazole], the EC50 in the test on G. lamblia strain CBG99 [2] was 5 µM.

Regarding `CC(C)C(=O)c1nc2ccccc2c(=O)n1C1CC2(OC1=O)c1ccccc1N1C(=O)C(C)(C)NC12` (centres unmarked) [J36B], in the test with G. lamblia strain CBG99 [1] (Giardia duodenalis), the EC50 turned out to be 0.044 µM.

As to `CC(=O)ON1C2N(C(=O)C1(C)C)c1ccccc1C21CC(n2c(C(O)C(C)C)nc3ccccc3c2=O)C(=O)O1` (centres unmarked) [J36C, isotryptoquivaline], in the test on G. lamblia strain CBG99 [1] (Giardia duodenalis), the EC50 amounted to 0.84 µM.

Consider `CO[C@@H]1[C@H](OC(=O)/C=C/C=C/C=C/C=C/C(=O)O)CC[C@]2(CO2)[C@H]1[C@@]1(C)O[C@@H]1CC=C(C)C` [NPDG 170035, Fumagillin], for which, in the test on G. lamblia strain CBG99 [1] (Giardia duodenalis), the inhibition at 10 µM worked out at 88%. Besides, the results for the EC50 in the test with G. lamblia strain CBG99 [1] (setting [5]) and with G. lamblia strain CBG99 [1] (setting [3]) were less than 0.2 µM and 0.004 µM, respectively. Besides, the “times more potent than metronidazole” value with G. lamblia strain CBG99 [1] is greater than 25 times.

In the case of `CC1(C)C(=O)N2c3ccccc3C3(CC(n4cnc5ccccc5c4=O)C(=O)O3)C2N1O` (centres unmarked) [J16L, Tryptoquivaline L], the EC50 in the test with G. lamblia strain CBG99 [1] (Giardia duodenalis) came to 7.15 µM.

`C/C=C(\C)c1cc(OC)c(C)c2c1Oc1c(CO)c(O)cc(/C(C)=C/C(=O)O)c1C(=O)O2` [NPDG 150134, Auranticin A]: the inhibition at 10 µM in the test on G. lamblia strain CBG99 [1] (Giardia duodenalis) is 89%. Moreover, the EC50 in the test on G. lamblia strain CBG99 [1] (setting [3]) was found to be 4.44 ± 3.02 µM.

Regarding `C[C@@H]1N[C@H]2N(C1=O)c1ccccc1[C@@]21C[C@@H]2C(=O)N[C@@](C)(O1)c1nc3ccccc3c(=O)n12` [NPDG 170098, Fumiquinazoline C], the EC50 on G. lamblia strain CBG99 [1] (setting [4]) turned out to be 6.92 ± 8.5 µM. Besides, the “% inhibition at 10 μM” value in the test with G. lamblia strain CBG99 [1] is reported as 82%.

As for `C=C1CC[C@@H](OC(=O)/C=C/C=C/C=C/C=C/C(=O)O)[C@@H](OC)[C@H]1[C@@]1(C)O[C@@H]1CC=C(C)C` [NPDG 150138, Sch 528647], the EC50 on G. lamblia strain CBG99 [1] (setting [4]) turned out to be 3.09 ± 0.16 µM. Also, in the test with G. lamblia strain CBG99 [1], the “% inhibition at 10 μM” value is on record as 88%.

The values are drawn from publication PMC10269678, “Identification of Fungus-Derived Natural Products as New Antigiardial Scaffolds” (Microbiology Spectrum, 2023).
